Measurements as given in article PMC12264794, “Homoleptic complexes of titanium(IV) fused with O^N^O Schiff base derivatives: design, BSA–DNA interaction, molecular docking, DFT and cytotoxicity” (RSC Advances, 2025).

What was measured:
[1] = Stability studies by UV-vis in DMSO:H2O and aqueous GSH medium; format: physicochemical; conditions: DMSO : H2O (1 : 9, v/v) and aqueous GSH medium, over 72 hours
Experimental: Stability studies were carried out using DMSO : H2O medium (1 : 9, v/v) and aqueous GSH medium to perform stability tests on the freshly synthesized Ti(IV) complexes over 72 hours.

[2] = DPPH radical scavenging assay; format: biochemical; conditions: 40 minutes, absorbance at 517 nm
Description: In the current study, 1,1-diphenyl 2-picrylhydrazyl (DPPH) radical scavenging screening determined the antioxidant properties of the synthesized Ti(IV) complexes. The spectrophotometric principle that led to the quenching of stable-colored radicals (DPPH) is the foundation of DPPH assays.[62] By detecting the drop in absorbance at 517 nm, which corresponds to the DPPH free radical, the scavenging activity of the produced complexes can be determined. The result of the reaction between the scavenger and colored free radical is 1,1-diphenyl-2-picrylhydrazine (DPPH-H), which lacks color. The newly synthesized Ti(IV) complexes were dissolved at a ratio of 1 mg mL^−1 in DMSO to create the stock solution. Similarly, methanol was used to prepare a stock solution of a 0.05 Mm DPPH solution. The Ti(IV) complexes were dissolved in DPPH stock solution to make (9.5 μM, 18.75 μM, 37.5 μM, 75 μM, 100 μM, and 300 μM) concentrations of the complexes and kept in a state of rest for 40 minutes under closed conditions. The absorbance of the Ti(IV) complexes was measured at 517 nm after 40 minutes for each solution loaded in 96-well plates using a Bio-Rad xMARK™ Microplate Spectrophotometer. For comparison, the absorbance of a control solution containing DPPH and methanol as blank, devoid of test samples, was also measured at the same level. Three sets of experiments were conducted for each concentration, using ascorbic acid as the standard reference. Using eqn (1), the proportion of DPPH free radical scavenging activity was calculated.[63]1 [drawing 1] where Ac and As are the absorbance of the control and the mixture. The necessary concentration of the Ti(IV) complexes to scavenge DPPH radicals was determined by employing linear regression to plot a curve between concentration and % inhibition.
In order to ascertain the antioxidant activity of the Ti(IV) complexes, a UV-vis spectrophotometric examination was performed using the 1,1-diphenyl-2-picrylhydrazyl (DPPH) method. Since DPPH is thought to be a dependable, stable, free radical, it reacts with methanol to form a […]. The ability of the complexes containing DPPH radicals to scavenge radicals was evaluated in the manner described. Several concentrations of the Ti(IV) complexes were investigated. Mixtures created by mixing DPPH with each component were subjected to spectrophotometric analysis at 517 nm to determine the absorbance. Antioxidant compounds usually transfer one electron to act as a reducing agent.

[3] = system: HeLa cells; test: Flow cytometry cell cycle analysis by PI staining; format: cell-based, human; conditions: 48 h, complexes at IC50, cis-platin 5 μM
Experimental: A flow cytometer was also used to do the apoptotic assessment. HeLa cells (5 × 10^5) were seeded onto 6-well plates using Dulbecco's Modified Eagle Medium paper (DMEM) with 10% FBS. The plates were incubated overnight at 37 °C with 95% air and 5% CO2. […] Following trypsinization, the cells were collected, cleaned with PBS, and fixed for 24 hours at 2–6 °C in ice-cold 70% ethanol. Centrifugation was used to remove the ethanol, and cold PBS was used twice to wash the cell pellets. Later the cells were stained with propidium iodide (PI, 1 mg mL^−1) and incubated for 30 min. Flow cytometric analysis was performed using a FACS scanner and the Becton Dickinson cell search program at 595 nm and the distribution of cells in various cell cycle phases was determined.[69,70]
Through cell cycle analysis, the mechanism of cancer cell death caused by the complexes was evaluated. Anticancer drugs promote growth-inhibitory action in cancer cells by a variety of mechanisms, one of which is dysfunction in the regulation of the cell cycle.[32] For example, cis-platin inhibits DNA transcription in cells by stopping the cell cycle in the S and G2/M phases. PI staining and flow cytometry were used to examine the ability of the complexes to modify the cell cycle (Fig. 19).

[4] = system: HeLa cells; test: AO–EB staining assay; format: cell-based, human; conditions: IC50 concentration, 48 hours
Experimental: A dual AO–EB staining fluorescent labelling technique was performed utilizing the Gohel et al. protocol, HeLa cells were seeded in 6-well plates at a density of 5 × 10^4. They were grown in a humidified CO2 incubator at 37 °C until they reached 70–80% confluency. […] The media were removed from each well, and the cells underwent two gentle room-temperature PBS rinses. Following that, the cells were combined with 100 μL of ethidium bromide and acridine orange dye and incubated separately for 15 minutes at 37 °C after staining separately, and the plates were observed and images were captured with an Olympus Confocal Laser Scanning Microscope—Fluoview Fv3000.[67,68]
The most important requirement in the creation of novel anticancer drugs is to determine the apoplastic induction caused by the drug concerned. AO–EB assay staining aids in the differentiation of necrotic, apoptotic, and living cells. By means of AO–EB staining, the morphological alterations caused by Ti-1-IS to Ti-6-IBr in HeLa cells were investigated. AO can penetrate intact cell membranes and dye them green; this distinction is caused in early apoptotic as well as normal cells. In contrast, EB can only enter cells that have lost their ability to form membranes, leaving an orange stain behind, identifying them as necrotic or late apoptotic cells.

| Stability [1] | IC50 [2] | Compound | G0/G1 phase [3] | S Phase [3] | Sub-G0 phase [3] | Apoptosis induction by AO–EB staining [4] |
| --- | --- | --- | --- | --- | --- | --- |
| did not change much | 92.01 ± 0.1 µM | [O-]C(=NN=Cc1ccccc1[O-])c1ccncc1.[O-]C(=NN=Cc1ccccc1[O-])c1ccncc1.[Ti+4] [Ti-1-IS] |  |  |  |  |
| small degree of hyperchromism | 74.84 ± 0.2 µM | Brc1ccc2c(c1)C=NN=C(c1ccncc1)[O][Ti]1([O]C(c3ccncc3)=NN=Cc3cc(Br)ccc3[O]1)[O]2 (centres unmarked) [Ti-6-IBr] |  |  |  |  |
| small degree of hyperchromism | 82.61 ± 0.1 µM | [O-]C(=NN=Cc1cc(F)ccc1[O-])c1ccncc1.[O-]C(=NN=Cc1cc(F)ccc1[O-])c1ccncc1.[Ti+4] [Ti-4-IF] |  |  |  |  |
| remained constant | 72.26 ± 0.7 µM | [O-]C(=NN=Cc1cc(Cl)ccc1[O-])c1ccncc1.[O-]C(=NN=Cc1cc(Cl)ccc1[O-])c1ccncc1.[Ti+4] [Ti-5-ICl] | 7.45% | 16.10% | 14.72% | apoptosis was triggered |
| did not change much | 128.1 ± 0.3 µM | [O-]C(=NN=Cc1c([O-])ccc2ccccc12)c1ccncc1.[O-]C(=NN=Cc1c([O-])ccc2ccccc12)c1ccncc1.[Ti+4] [Ti-2-IN] |  |  |  |  |
| small degree of hyperchromism | 44.59 ± 0.4 µM | COc1cccc(C=NN=C([O-])c2ccncc2)c1[O-].COc1cccc(C=NN=C([O-])c2ccncc2)c1[O-].[Ti+4] [Ti-3-IO] | 18.32% | 19.41% | 28.48% | apoptosis was triggered |
